{"source": "ChEMBL document CHEMBL4680280", "about": "“Modulation of the Innate Immune Response by Targeting Toll-like Receptors: A Perspective on Their Agonists and Antagonists” (J Med Chem, 2020)", "key": {"Toll-like receptor 2 [1]": {"molecular_target": "T1, Toll-like receptor 2 (Homo sapiens, UniProt O60603)", "T1 sequence (O60603 whole entry)": "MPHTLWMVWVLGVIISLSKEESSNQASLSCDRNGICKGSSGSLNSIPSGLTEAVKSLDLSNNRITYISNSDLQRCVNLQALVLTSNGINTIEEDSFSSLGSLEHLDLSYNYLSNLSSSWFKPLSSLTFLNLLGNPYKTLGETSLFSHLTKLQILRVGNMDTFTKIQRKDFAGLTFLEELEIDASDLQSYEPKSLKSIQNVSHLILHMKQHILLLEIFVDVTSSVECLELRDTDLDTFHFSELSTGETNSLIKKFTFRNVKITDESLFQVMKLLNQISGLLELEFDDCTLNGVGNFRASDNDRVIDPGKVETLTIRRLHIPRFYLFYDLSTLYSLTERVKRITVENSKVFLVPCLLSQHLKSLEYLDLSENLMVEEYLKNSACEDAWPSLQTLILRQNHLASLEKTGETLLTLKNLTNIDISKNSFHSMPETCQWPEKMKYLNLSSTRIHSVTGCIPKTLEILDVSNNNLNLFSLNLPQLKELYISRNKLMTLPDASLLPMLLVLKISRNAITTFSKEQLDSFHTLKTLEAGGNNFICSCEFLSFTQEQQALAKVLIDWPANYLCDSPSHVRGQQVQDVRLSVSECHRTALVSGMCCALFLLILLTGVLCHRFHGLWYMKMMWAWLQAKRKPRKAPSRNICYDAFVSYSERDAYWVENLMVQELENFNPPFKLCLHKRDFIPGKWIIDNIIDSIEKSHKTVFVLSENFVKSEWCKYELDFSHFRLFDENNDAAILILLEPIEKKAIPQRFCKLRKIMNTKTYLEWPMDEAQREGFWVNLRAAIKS", "experiment": "Agonist activity at TLR2 in HEK-Blue hTLR2 cells assessed as NF-kappaB activation preincubated for 24 hrs followed by replacement of medium containing compound and measured after 0.5 to 1 hrs by Quanti-blue SEAP assay"}, "Toll-like receptor 4": {"molecular_target": "Toll-like receptor 4 (Homo sapiens, UniProt O00206)", "sequence (O00206 whole entry)": "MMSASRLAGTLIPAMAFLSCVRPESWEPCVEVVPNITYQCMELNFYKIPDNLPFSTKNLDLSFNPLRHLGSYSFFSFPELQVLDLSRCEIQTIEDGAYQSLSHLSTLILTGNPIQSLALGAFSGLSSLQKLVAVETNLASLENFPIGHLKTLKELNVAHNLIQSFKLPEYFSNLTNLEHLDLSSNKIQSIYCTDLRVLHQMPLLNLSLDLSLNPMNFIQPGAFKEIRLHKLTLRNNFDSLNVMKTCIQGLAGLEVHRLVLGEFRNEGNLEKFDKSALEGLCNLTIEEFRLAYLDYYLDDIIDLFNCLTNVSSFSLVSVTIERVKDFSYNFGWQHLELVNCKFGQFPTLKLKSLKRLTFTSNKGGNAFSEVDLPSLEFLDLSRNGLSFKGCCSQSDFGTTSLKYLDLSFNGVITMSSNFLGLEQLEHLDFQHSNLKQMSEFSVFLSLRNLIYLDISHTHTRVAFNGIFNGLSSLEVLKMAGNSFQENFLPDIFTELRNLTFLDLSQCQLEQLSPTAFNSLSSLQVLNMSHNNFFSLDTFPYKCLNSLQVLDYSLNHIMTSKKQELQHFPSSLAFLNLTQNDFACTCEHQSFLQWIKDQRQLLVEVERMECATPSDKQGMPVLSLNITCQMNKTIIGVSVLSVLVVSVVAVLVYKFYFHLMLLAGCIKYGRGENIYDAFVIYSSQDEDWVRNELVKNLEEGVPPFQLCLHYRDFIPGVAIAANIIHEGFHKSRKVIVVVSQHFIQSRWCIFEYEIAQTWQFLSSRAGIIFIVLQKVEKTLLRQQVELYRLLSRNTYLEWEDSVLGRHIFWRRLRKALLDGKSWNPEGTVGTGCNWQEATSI", "experiment": "Modulation of TLR4 in human THP1 cells assessed as reduction in LPS-induced TLR4 expression pretreated for 2 hrs followed by LPS challenge and measured after 18 hrs by flow cytometry", "format": "cell-based, THP-1"}, "Toll-like receptor 2 [2]": {"molecular_target": "T1, Toll-like receptor 2", "experiment": "Agonist activity at TLR2 (unknown origin)"}, "Toll-like receptor 5": {"molecular_target": "Toll-like receptor 5 (Homo sapiens, UniProt O60602)", "sequence (O60602 whole entry)": "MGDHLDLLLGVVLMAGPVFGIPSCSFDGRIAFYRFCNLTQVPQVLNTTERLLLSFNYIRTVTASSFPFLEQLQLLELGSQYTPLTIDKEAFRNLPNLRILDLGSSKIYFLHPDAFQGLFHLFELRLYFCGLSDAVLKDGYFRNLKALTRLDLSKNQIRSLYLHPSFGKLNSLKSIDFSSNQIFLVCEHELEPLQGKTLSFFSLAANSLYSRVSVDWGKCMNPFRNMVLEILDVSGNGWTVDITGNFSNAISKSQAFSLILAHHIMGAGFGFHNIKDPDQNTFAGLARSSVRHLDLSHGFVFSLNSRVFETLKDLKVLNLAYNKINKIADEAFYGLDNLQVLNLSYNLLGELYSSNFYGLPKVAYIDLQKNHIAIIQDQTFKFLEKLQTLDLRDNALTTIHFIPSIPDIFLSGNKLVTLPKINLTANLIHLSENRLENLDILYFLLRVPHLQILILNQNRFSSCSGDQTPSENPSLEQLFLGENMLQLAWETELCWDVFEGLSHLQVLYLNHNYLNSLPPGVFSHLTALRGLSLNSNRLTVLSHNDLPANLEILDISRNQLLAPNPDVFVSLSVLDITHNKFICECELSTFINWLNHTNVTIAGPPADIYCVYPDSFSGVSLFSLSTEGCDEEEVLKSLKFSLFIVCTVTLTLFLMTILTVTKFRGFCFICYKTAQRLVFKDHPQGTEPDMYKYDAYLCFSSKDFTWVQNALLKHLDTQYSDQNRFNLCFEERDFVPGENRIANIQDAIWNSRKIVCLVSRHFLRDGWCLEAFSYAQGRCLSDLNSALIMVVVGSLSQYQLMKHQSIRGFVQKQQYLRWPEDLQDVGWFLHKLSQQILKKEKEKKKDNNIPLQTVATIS", "experiment": "Inhibition of Flagellin-BS binding to human TLR5 expressed in HEK293 cells harboring SEAP reporter gene preincubated for 24 hrs followed by compound wash out and subsequent Flagellin-BS addition along with compound and measured after 0.5 hrs by QUANTI-Blue assay", "format": "cell-based"}}}
{"smiles": "CCOC(=O)c1c(NC(=O)N2CCN(C)CC2)sc2c1CCC2", "values": [{"measurement": "EC50", "setting": "Toll-like receptor 2 [1]", "value": 550, "unit": "nM"}]}
{"smiles": "C=C1C(=O)O[C@@H]2[C@H]3O[C@]3(C)CC/C=C(\\C)CC[C@@H]12", "values": [{"measurement": "IC50", "setting": "Toll-like receptor 4", "value": 1400, "unit": "nM"}]}
{"smiles": "CCCCCCCCCCCCCCCC(=O)OC[C@H](CSC[C@H](NC(C)=O)C(=O)N[C@@H](CO)C(=O)N[C@@H](CCCCN)C(=O)N[C@@H](CCCCN)C(=O)N[C@@H](CCCCN)C(=O)N[C@@H](CCCCN)C(=O)N[C@@H](CO)C(=O)N[C@@H](CC(C)C)C(=O)N[C@H](CN[C@@H](CCSC)C(=O)N[C@@H](Cc1c[nH]c2ccccc12)C(=O)N[C@H](C(=O)N[C@H](C(=O)N[C@@H](CCC(N)=O)C(=O)N[C@H](C(=O)O)C(C)C)[C@@H](C)O)[C@@H](C)CC)CC(C)C)OC(=O)CCCCCCCCCCCCCCC", "values": [{"measurement": "EC50", "setting": "Toll-like receptor 2 [2]", "value": 0.28, "unit": "nM"}]}
{"smiles": "CNc1ccc([N+](=O)[O-])cc1-n1cnc(-c2ccc(C(F)(F)F)cc2O)c1", "values": [{"measurement": "EC50", "setting": "Toll-like receptor 2 [1]", "value": 4.88, "unit": "nM"}]}
{"smiles": "CCCCCCCCCCCCCCCC(=O)OCCCC[C@H](CSC[C@H](N)C(=O)N[C@@H](CO)C(=O)N[C@@H](CCCCN)C(=O)N[C@@H](CCCCN)C(=O)N[C@@H](CCCCN)C(=O)N[C@@H](CCCCN)C(=O)N[C@@H](CO)C(=O)N[C@@H](CC(C)C)C(=O)N[C@H](CN[C@@H](CCSC)C(=O)N[C@@H](Cc1c[nH]c2ccccc12)C(=O)N[C@H](C(=O)N[C@H](C(=O)N[C@@H](CCC(N)=O)C(=O)N[C@H](C(=O)O)C(C)C)[C@@H](C)O)[C@@H](C)CC)CC(C)C)OC(=O)CCCCCCCCCCCCCCC", "values": [{"measurement": "EC50", "setting": "Toll-like receptor 2 [2]", "value": 0.3, "unit": "nM"}]}
{"smiles": "CCCCCCCCCCCCCCCC(=O)OC[C@H](CSC[C@H](N)C(=O)N[C@@H](CO)C(=O)N[C@@H](CCCCN)C(=O)N[C@@H](CCCCN)C(=O)N[C@@H](CCCCN)C(=O)N[C@@H](CCCCN)C(=O)N[C@@H](CO)C(=O)N[C@@H](CC(C)C)C(=O)N[C@H](CN[C@@H](CCSC)C(=O)N[C@@H](Cc1c[nH]c2ccccc12)C(=O)N[C@H](C(=O)N[C@H](C(=O)N[C@@H](CCC(N)=O)C(=O)N[C@H](C(=O)O)C(C)C)[C@@H](C)O)[C@@H](C)CC)CC(C)C)OC(=O)CCCCCCCCCCCCCCC", "values": [{"measurement": "EC50", "setting": "Toll-like receptor 2 [2]", "value": 0.47, "unit": "nM"}]}
{"smiles": "CCCCCCCCCCCCCCCC(=O)OCCC[C@H](CSC[C@H](N)C(=O)N[C@@H](CO)C(=O)N[C@@H](CCCCN)C(=O)N[C@@H](CCCCN)C(=O)N[C@@H](CCCCN)C(=O)N[C@@H](CCCCN)C(=O)N[C@@H](CO)C(=O)N[C@@H](CC(C)C)C(=O)N[C@H](CN[C@@H](CCSC)C(=O)N[C@@H](Cc1c[nH]c2ccccc12)C(=O)N[C@H](C(=O)N[C@H](C(=O)N[C@@H](CCC(N)=O)C(=O)N[C@H](C(=O)O)C(C)C)[C@@H](C)O)[C@@H](C)CC)CC(C)C)OC(=O)CCCCCCCCCCCCCCC", "values": [{"measurement": "EC50", "setting": "Toll-like receptor 2 [2]", "value": 0.38, "unit": "nM"}]}
{"smiles": "c1ccc(Cn2c(Sc3ncnc4c3sc3ncccc34)nnc2-c2ccncc2)cc1", "values": [{"measurement": "IC50", "setting": "Toll-like receptor 5", "value": 850, "unit": "nM"}]}
